Literature values in patent US20080187585A1, “Prolonged-Release Compositions Comprising Torasemide and a Matrix-Forming Polymer” (FERRER INTERNACIONAL S.A., priority 2004, published 2008).

Assays:
[1] = not given; remark: listed apart in the source

Structure (SMILES): Cc1cccc(Nc2ccncc2S(=O)(=O)NC(=O)NC(C)C)c1 [torasemide, Torasemide]
- time of maximal effects on urine and electrolytes excretions (after oral administration): approximately 2 hours
- dose-response relationship for urinary volume (doses from 2.5 to 20 mg): linear dose-response relationship
- bioavailability ([1]; after oral administration): 80-90%
- kinetics ([1]; oral administration): linear
- elimination half-life (t1/2) ([1]; oral administration, man): 3 to 4 h
- tmax (time to maximum plasma concentration) ([1]; oral administration, man): approximately 1 hour
